For four compounds, minimal effective dose and LD50 results are on record in patent US4349562A, “Substituted 2-pyrrolidinones” (Hoffmann-La Roche Inc., priority 1978, dated 1982).

Read-outs that look alike come from different tables or passages of the source.

The subject of one data set is untrained rats. Kind of data set: Posthypercapnic "avoidance" acquisition (shuttle box). The format is in vivo. The following applies: Rattus norvegicus, carbon dioxide 12 seconds, read-out: Minimum active dosage. On the procedure: (§1) The ability of the compounds of formula I to counteract experimentally produced cerebral insufficiency in mammals was determined by means of test procedures which are described hereinafter:
POSTHYPERCAPNIC "AVOIDANCE" ACQUISITION
The test apparatus is a "shuttle box" having a 10 cm high hurdle in the middle and an electrifiable grid floor. A loudspeaker is mounted in the soundproof chamber. One group of untrained rats (120-150 g.) is injected with a test preparation and a second group is injected with a control preparation. One or three hours after administration, each group is placed in a pure carbon dioxide environment for 12 seconds. A third group of 10 rats is treated neither with the test preparation nor with carbon dioxide. Three minutes after treatment with carbon dioxide the rats of all three groups must learn an escape response and an avoidance response in the "shuttle box" in the following sequence: 10 seconds silence, 5 seconds noise ("avoidance response"), 15 seconds noise+foot-shock ("escape response"). The sequence is repeated six times. For each of the six experiments the reaction time (time until the rat jumps over the hurdle) of each rat is measured and the statistical significance of the differences between the mean group reaction times is calculated by means of the Mann-Whitney U-test.

For the next data set, the system named is untrained male rats. Kind of data set: "Passive avoidance" test with electroshock amnesia. The format is in vivo. The following applies: Rattus norvegicus, ip, 3 h, i.p., electric shock, retention time after three hours, read-out: minimum active dosage. On the procedure:
as §1
"PASSIVE AVOIDANCE" TEST WITH ELECTROSHOCK AMNESIA
The test apparatus is a Skinner box having an electrifiable grid floor with a grey quadrangular platform in one corner. Untrained male rats weighing 100-200 g are placed on the platform. When the rats climb down onto the grid floor they receive an electric shock. […] Immediately after acquisition of the passive avoidance response three groups of 20 rats each are formed. One group receives an electric shock between the ears and i.p. injection of the test preparation. The second group receives an electric shock between the ears and an i.p. injection of sodium chloride. The third group receives only an i.p. injection of sodium chloride. After three hours, each rat is placed on the platform once and the retention time, that is, the time the rat remains on the platform (maximum 60 seconds), is measured. The significant activity of the test preparation in comparison to the two control groups is calculated by means of the Rang Test.

The next data set can be described thus: Acute toxicity in mice. The following applies: mouse, in vivo, po. From the text: The acute toxicities of the compounds of formula I in mice are as follows: […]
The test system of data set [1] is squirrel monkeys (Saimiri sciureus). Kind of data set: Inhibition of haloperidol-induced "knock out" in a "continuous avoidance" test sequence. In kind it is in vivo, squirrel monkey (Saimiri sciureus). The following applies: in Primates, ip, before haloperidol 1.0 mg/kg p.o., delay in knock-out time, read-out: minimum active dosage. The procedure:
as §1
INHIBITION OF HALOPERIDOL-INDUCED "KNOCK OUT" IN A "CONTINUOUS AVOIDANCE" TEST SEQUENCE
Male, untrained squirrel monkeys (Saimiri sciureus), each weighing 0.6 to 1.2 kg, are trained in a two-lever Skinner box in the following "continuous avoidance" sequence: "avoidance-shock", interval 40 seconds; "shock-shock", interval 20 seconds; foot-shock, maximum 5 seconds. Monkeys having a normal baseline performance receive haloperidol 1.0 mg/kg p.o. to determine the "knock-out" time (blocking of "avoidance and escape"). Monkeys having stable "knock-out" times are selected for the evaluation of test preparations as a potential cerebral insufficiency improver. The test preparations can be injected at various times before the treatment with haloperidol.
A dosage of a test preparation is considered to be active, if the administration before the treatment with haloperidol, produces a significant delay in the "knock-out" time. The test preparation is administered at different times prior to treatment with haloperidol.

Take `COc1ccc(CN2CCCC2=O)cc1` [p-Methoxybenzyl, 1-(p-methoxybenzyl)-2-pyrrolidinone]: the minimal effective dose with untrained rats (ip, after 1 hour) came to 10 mg/kg; in the data set on untrained rats (po, after 1 hour) it was 50 mg/kg; in the data set on untrained male rats it was 50 mg/kg; in data set [1] it was 1 mg/kg. Also, the median lethal dose (LD50) in “Acute toxicity in mice” lay within 2000 to 4000 mg/kg.

Regarding `COc1ccccc1C(=O)N1CCCC1=O` [o-Methoxybenzoyl], the minimal effective dose in the data set on untrained rats (ip, after 1 hour) turned out to be 30 mg/kg; in the data set on untrained rats (po, after 1 hour), 100 mg/kg. For the same compound, in “Acute toxicity in mice”, the 50% lethal dose (LD50) is 5000 mg/kg.

For `COc1cccc(CN2CCCC2=O)c1` [m-Methoxybenzyl], in the data set with untrained rats (ip, after 3 hours), the minimal effective dose stood at 50 mg/kg. In “Acute toxicity in mice”, the median lethal dose (LD50) was 1250 to 2500 mg/kg.

Turning to `O=C1CCCN1Cc1ccc(F)cc1` [p-Fluorobenzyl], the minimal effective dose with untrained rats (ip, after 1 hour) worked out at 50 mg/kg; in the data set on untrained rats (po, after 1 hour) it was 300 mg/kg. Moreover, the LD50 in the data set “Acute toxicity in mice” was in the range of 1000 to 2000 mg/kg.

For orientation: LD50 means the dose expected to kill half of the subjects tested. Higher therefore signals a less toxic substance.
